Measured values from US20250230193A1, “CYCLIC COMPOUND HAVING SELECTIVE KRAS INHIBITORY EFFECT ON HRAS AND NRAS” (CHUGAI SEIYAKU KABUSHIKI KAISHA, priority 2022, published 2025).

How the values were obtained:
[1] = target: GDP-bound NRAS wild-type protein (Homo sapiens, UniProt P01111); assay: Binding to NRAS by surface plasmon resonance (SPR), Single Cycle Kinetics; details: SPR; KD ratio class
[2] = target: GDP-bound HRAS wild-type protein (Homo sapiens, UniProt P01112); assay: Binding to HRAS by surface plasmon resonance (SPR), Single Cycle Kinetics; details: SPR; KD ratio class
Sequence of GDP-bound HRAS wild-type protein (P01112 whole entry): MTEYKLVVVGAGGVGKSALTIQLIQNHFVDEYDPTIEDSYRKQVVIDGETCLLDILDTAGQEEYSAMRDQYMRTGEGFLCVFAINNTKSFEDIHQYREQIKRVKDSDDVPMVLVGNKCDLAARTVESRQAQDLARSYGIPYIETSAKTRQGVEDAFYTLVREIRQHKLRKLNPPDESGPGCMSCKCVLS

[3] = test system: human lung cancer strain NCI-H441; assay: cells; details: NCI-H441, 96 h, read-out: NCI-H441 IC50 (nM)

Sequence of GDP-bound NRAS wild-type protein (P01111 whole entry): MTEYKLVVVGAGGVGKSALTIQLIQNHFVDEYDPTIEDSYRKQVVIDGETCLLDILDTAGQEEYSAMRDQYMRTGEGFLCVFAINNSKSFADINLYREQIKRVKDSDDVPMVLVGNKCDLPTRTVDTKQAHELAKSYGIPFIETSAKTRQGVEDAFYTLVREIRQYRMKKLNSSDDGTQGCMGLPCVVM

| IC50 [3] | Compound | NRAS/KRAS (ratio of KD value for GDP-bound NRAS wild-type protein to KD value for KRAS) [1] | HRAS/KRAS (ratio of KD value for GDP-bound HRAS wild-type protein to KD value for KRAS) [2] |
| --- | --- | --- | --- |
| 309 nM | CCO[C@@H]1C[C@H]2C(=O)NC3(CCC3)C(=O)N(C)[C@@H](C3CCCC3)C(=O)N(C)[C@H](C(=O)N(C)C)CC(=O)N(C)[C@@H](CC3CC3)C(=O)N[C@@H]([C@@H](C)CC)C(=O)N(C)CC(=O)N(C)[C@H]3C/C=C\CCN(C3=O)[C@@H](Cc3ccc(F)cc3C)C(=O)N(C)CC(=O)N[C@@H](CCc3cc(F)c(Cl)c(F)c3)C(=O)N2C1 [PP1477] | A (a compound having 10 or more and less than 20 is denoted as A) | B (a compound having 3 or more and less than 10 is denoted as B) |
| 102 nM | CCO[C@@H]1C[C@H]2C(=O)NC3(CCC3)C(=O)N(C)[C@@H](C3CCCC3)C(=O)N(C)[C@H](C(=O)N(C)C)CC(=O)N(C)[C@@H](CC3CC3)C(=O)N[C@@H]([C@@H](C)CC)C(=O)N(C)CC(=O)N(C)[C@H]3C/C=C\CCN(C3=O)[C@@H](Cc3ccc(F)cc3)C(=O)N(C)CC(=O)N[C@@H](CCc3ccc(Cl)c(Cl)c3)C(=O)N2C1 [PP1478] | A (a compound having 10 or more and less than 20 is denoted as A) | A (a compound having 10 or more and less than 20 is denoted as A) |
| 140 nM | CCO[C@@H]1C[C@H]2C(=O)NC3(CCC3)C(=O)N(C)[C@@H](C3CCCC3)C(=O)N(C)[C@H](C(=O)N(C)C)CC(=O)N(C)[C@@H](CC3CC3)C(=O)N[C@@H]([C@@H](C)CC)C(=O)N(C)CC(=O)N(C)[C@H]3C/C=C\CCN(C3=O)[C@@H](Cc3ccc(F)cc3)C(=O)N(C)CC(=O)N[C@@H](CCc3cc(F)c(Cl)c(F)c3)C(=O)N2C1 [PP1479] | A (a compound having 10 or more and less than 20 is denoted as A) | B (a compound having 3 or more and less than 10 is denoted as B) |
| 85.8 nM | CCO[C@@H]1C[C@H]2C(=O)NC3(CCC3)C(=O)N(C)[C@@H](C3CCCC3)C(=O)N(C)[C@H](C(=O)N(C)C)CC(=O)N(C)[C@@H](CC(C)C)C(=O)N[C@@H]([C@@H](C)CC)C(=O)N(C)CC(=O)N(C)[C@H]3C/C=C\CCN(C3=O)[C@@H](Cc3ccc(F)cc3C)C(=O)N(C)CC(=O)N[C@@H](CCc3ccc(Cl)c(Cl)c3)C(=O)N2C1 [PP1480] | A (a compound having 10 or more and less than 20 is denoted as A) | B (a compound having 3 or more and less than 10 is denoted as B) |
| 14.8 nM | CCO[C@@H]1C[C@H]2C(=O)NC3(CCC3)C(=O)N(C)[C@@H](C3CCCC3)C(=O)N(C)[C@H](C(=O)N(C)C)CC(=O)N(C)[C@@H](CC(C)C)C(=O)N[C@@H]([C@@H](C)CC)C(=O)N(C)CC(=O)N(C)[C@H]3C/C=C\CCN(C3=O)[C@@H](Cc3ccc(F)cc3C)C(=O)N(C)CC(=O)N[C@@H](CCc3cc(F)c(Cl)c(F)c3)C(=O)N2C1 [PP1481] | A (a compound having 10 or more and less than 20 is denoted as A) | B (a compound having 3 or more and less than 10 is denoted as B) |
| 76.4 nM | CCO[C@@H]1C[C@H]2C(=O)NC3(CCC3)C(=O)N(C)[C@@H](C3CCCC3)C(=O)N(C)[C@H](C(=O)N(C)C)CC(=O)N(C)[C@@H](CC(C)C)C(=O)N[C@@H]([C@@H](C)CC)C(=O)N(C)CC(=O)N(C)[C@H]3C/C=C\CCN(C3=O)[C@@H](Cc3ccc(F)cc3)C(=O)N(C)CC(=O)N[C@@H](CCc3ccc(Cl)c(Cl)c3)C(=O)N2C1 [PP1482] | A (a compound having 10 or more and less than 20 is denoted as A) | B (a compound having 3 or more and less than 10 is denoted as B) |
| 90.3 nM | CCO[C@@H]1C[C@H]2C(=O)NC3(CCC3)C(=O)N(C)[C@@H](C3CCCC3)C(=O)N(C)[C@H](C(=O)N(C)C)CC(=O)N(C)[C@@H](CC(C)C)C(=O)N[C@@H]([C@@H](C)CC)C(=O)N(C)CC(=O)N(C)[C@H]3C/C=C\CCN(C3=O)[C@@H](Cc3ccc(F)cc3)C(=O)N(C)CC(=O)N[C@@H](CCc3cc(F)c(Cl)c(F)c3)C(=O)N2C1 [PP1483] | A (a compound having 10 or more and less than 20 is denoted as A) | B (a compound having 3 or more and less than 10 is denoted as B) |
| 59.3 nM | CCO[C@@H]1C[C@H]2C(=O)NC3(CCC3)C(=O)N(C)[C@@H](C3CCCC3)C(=O)N(C)[C@H](C(=O)N(C)C)CC(=O)N(C)[C@@H](CC3CC3)C(=O)N[C@@H]([C@@H](C)CC)C(=O)N(C)CC(=O)N(C)[C@H]3C/C=C\CCN(C3=O)[C@@H](Cc3ccc(C)cc3)C(=O)N(C)CC(=O)N[C@@H](CCc3cc(F)c(Cl)c(F)c3)C(=O)N2C1 [PP1484] | A (a compound having 10 or more and less than 20 is denoted as A) | A (a compound having 10 or more and less than 20 is denoted as A) |
| 30.5 nM | CCO[C@@H]1C[C@H]2C(=O)NC3(CCC3)C(=O)N(C)[C@@H](C3CCCC3)C(=O)N(C)[C@H](C(=O)N(C)C)CC(=O)N(C)[C@@H](CC3CC3)C(=O)N[C@@H]([C@@H](C)CC)C(=O)N(C)CC(=O)N(C)[C@H]3C/C=C\CCN(C3=O)[C@@H](Cc3ccc(C)cc3)C(=O)N(C)CC(=O)N[C@@H](CCc3ccc(Cl)c(Cl)c3)C(=O)N2C1 [PP1485] | A (a compound having 10 or more and less than 20 is denoted as A) | A (a compound having 10 or more and less than 20 is denoted as A) |
| 15 nM | CCO[C@@H]1C[C@H]2C(=O)NC3(CCC3)C(=O)N(C)[C@@H](C3CCCC3)C(=O)N(C)[C@H](C(=O)N(C)C)CC(=O)N(C)[C@@H](CC3CCCC3)C(=O)N[C@@H]([C@@H](C)CC)C(=O)N(C)CC(=O)N(C)[C@H]3C/C=C\CCN(C3=O)[C@@H](Cc3ccc(C)cc3)C(=O)N(C)CC(=O)N[C@@H](CCc3cc(F)c(Cl)c(F)c3)C(=O)N2C1 [PP1486] | A (a compound having 10 or more and less than 20 is denoted as A) | A (a compound having 10 or more and less than 20 is denoted as A) |
| 46.6 nM | CCO[C@@H]1C[C@H]2C(=O)NC3(CCC3)C(=O)N(C)[C@@H](C3CCCC3)C(=O)N(C)[C@H](C(=O)N(C)C)CC(=O)N(C)[C@@H](CC3CCCC3)C(=O)N[C@@H]([C@@H](C)CC)C(=O)N(C)CC(=O)N(C)[C@H]3C/C=C\CCN(C3=O)[C@@H](Cc3ccc(C)cc3)C(=O)N(C)CC(=O)N[C@@H](CCc3ccc(Cl)c(Cl)c3)C(=O)N2C1 [PP1487] | A (a compound having 10 or more and less than 20 is denoted as A) | A (a compound having 10 or more and less than 20 is denoted as A) |
